From paper PMC10732257 (Oncotarget, 2023)

Experiments:
[1] = target: T1, CDK14/cyclin Y (Homo sapiens, UniProt O94921); experiment: CDK family off-target kinase activity (Eurofins); type: biochemical
T1 construct: purchased Eurofins Pharma Discovery Services UK Ltd
Protocol: (§1) GFH009 inhibition activity against the CDK9/cyclin T1 complex as well as off-target CDK family reactivity were assayed by Eurofins Pharma Discovery Services UK Ltd., (Dundee, UK). Determination of off-target inhibition of other kinases was conducted by DiscoverX LeadHunter Discovery Services (Freemont, CA, USA.) GFH009 reactivity to GPCR family members was assayed by Wuxi AppTech (Shanghai, China).
(§2) The pharmacodynamic and mechanistic foundation for the
(§3) CDK9 inhibitor for the treatment of hematologic malignancies
(§4) Supplementary Table 1: Inhibitory action of GFH009 on other CDK family members
(§5) Various CDK/ Remaining enzymatic activity (%) after
(§6) cognate cyclin pairs tested exposure to GFH009 at a concentration of Selectivity vs. CDK9
(§7) (also on this page, place not known: www.oncotarget.com Oncotarget, Materials Supplementary)
(§8) (1 picture or pasted object on this page, not shown here)

[2] = target: T2, CDK2/cyclin A (Homo sapiens, UniProt P24941); experiment: CDK family off-target kinase activity (Eurofins); type: biochemical
T2 construct: purchased Eurofins Pharma Discovery Services UK Ltd
Protocol: as §1, §2, §3, §4, §5, §6, §7, §8

[3] = target: T3, CDK5/p35 (Homo sapiens, UniProt Q00535); experiment: CDK family off-target kinase activity (Eurofins); type: biochemical
T3 construct: purchased Eurofins Pharma Discovery Services UK Ltd
T3 sequence (Q00535 whole entry): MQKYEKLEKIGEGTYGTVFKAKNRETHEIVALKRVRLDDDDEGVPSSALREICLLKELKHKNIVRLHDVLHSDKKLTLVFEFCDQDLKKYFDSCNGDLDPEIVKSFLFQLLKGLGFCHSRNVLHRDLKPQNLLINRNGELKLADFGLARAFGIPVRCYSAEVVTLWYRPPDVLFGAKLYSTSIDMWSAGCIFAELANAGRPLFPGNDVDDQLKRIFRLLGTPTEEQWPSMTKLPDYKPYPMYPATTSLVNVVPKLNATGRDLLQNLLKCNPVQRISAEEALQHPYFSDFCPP
T3 sequence (Q15078 2-307 partner limits assumed): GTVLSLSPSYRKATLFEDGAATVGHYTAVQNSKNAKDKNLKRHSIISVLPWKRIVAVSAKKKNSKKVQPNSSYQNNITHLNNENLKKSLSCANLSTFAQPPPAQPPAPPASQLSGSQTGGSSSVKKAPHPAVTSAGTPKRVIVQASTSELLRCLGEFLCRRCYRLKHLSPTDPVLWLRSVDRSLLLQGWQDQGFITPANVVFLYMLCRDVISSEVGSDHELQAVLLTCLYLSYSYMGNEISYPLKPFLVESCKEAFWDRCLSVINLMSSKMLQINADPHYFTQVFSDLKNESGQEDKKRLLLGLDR
Protocol: as §1, §2, §3, §4, §5, §6, §7, §8

[4] = target: T4, CDK7/cyclin H/MAT1 (Homo sapiens, UniProt P50613); experiment: CDK family off-target kinase activity (Eurofins); type: biochemical
T4 construct: purchased Eurofins Pharma Discovery Services UK Ltd
Protocol: as §1, §2, §3, §4, §5, §6, §7, §8

[5] = target: T5, Cdc7/cyclinB1 (Homo sapiens, UniProt O00311); experiment: CDK family off-target kinase activity (Eurofins); type: biochemical
T5 construct: purchased Eurofins Pharma Discovery Services UK Ltd
T5 sequence (O00311 whole entry): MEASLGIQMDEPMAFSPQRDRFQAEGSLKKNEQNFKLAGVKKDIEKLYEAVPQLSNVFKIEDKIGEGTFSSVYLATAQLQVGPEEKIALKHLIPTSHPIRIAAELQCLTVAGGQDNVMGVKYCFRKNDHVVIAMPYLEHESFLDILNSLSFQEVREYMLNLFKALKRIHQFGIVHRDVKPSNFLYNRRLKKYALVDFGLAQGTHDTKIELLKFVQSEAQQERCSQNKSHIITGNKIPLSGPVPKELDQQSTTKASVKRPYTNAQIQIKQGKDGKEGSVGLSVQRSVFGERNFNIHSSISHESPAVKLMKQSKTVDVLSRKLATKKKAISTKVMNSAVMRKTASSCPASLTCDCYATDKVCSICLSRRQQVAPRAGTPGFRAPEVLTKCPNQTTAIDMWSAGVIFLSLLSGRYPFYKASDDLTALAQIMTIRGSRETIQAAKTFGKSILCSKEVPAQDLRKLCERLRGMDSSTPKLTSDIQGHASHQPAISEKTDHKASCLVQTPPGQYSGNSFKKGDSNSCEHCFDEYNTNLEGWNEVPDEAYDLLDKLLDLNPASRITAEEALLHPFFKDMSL
Protocol: as §1, §2, §3, §4, §5, §6, §7, §8

[6] = target: T6, CDK1/cyclin B (Homo sapiens, UniProt P06493); experiment: CDK family off-target kinase activity (Eurofins); type: biochemical
T6 construct: purchased Eurofins Pharma Discovery Services UK Ltd
T6 sequence (P06493 whole entry): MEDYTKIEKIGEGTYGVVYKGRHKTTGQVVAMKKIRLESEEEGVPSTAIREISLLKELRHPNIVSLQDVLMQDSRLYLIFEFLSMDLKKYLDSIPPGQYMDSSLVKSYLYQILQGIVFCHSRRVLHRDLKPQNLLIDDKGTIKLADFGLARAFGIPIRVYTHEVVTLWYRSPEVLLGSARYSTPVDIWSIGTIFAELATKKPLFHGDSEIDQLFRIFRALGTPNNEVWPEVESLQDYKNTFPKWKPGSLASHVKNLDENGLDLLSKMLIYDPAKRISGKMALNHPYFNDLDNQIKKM
T6 sequence (P14635 whole entry partner): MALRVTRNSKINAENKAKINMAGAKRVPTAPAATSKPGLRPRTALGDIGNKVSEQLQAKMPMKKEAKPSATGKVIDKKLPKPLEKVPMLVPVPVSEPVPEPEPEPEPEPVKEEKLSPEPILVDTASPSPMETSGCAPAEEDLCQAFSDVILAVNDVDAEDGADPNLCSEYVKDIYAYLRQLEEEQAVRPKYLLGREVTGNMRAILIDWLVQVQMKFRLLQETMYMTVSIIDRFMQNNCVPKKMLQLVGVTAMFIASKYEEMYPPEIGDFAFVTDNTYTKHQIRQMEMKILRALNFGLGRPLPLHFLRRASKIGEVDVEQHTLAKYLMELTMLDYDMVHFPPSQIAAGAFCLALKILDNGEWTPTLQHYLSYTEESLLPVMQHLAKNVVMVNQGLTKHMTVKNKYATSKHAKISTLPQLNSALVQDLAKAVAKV
Protocol: as §1, §2, §3, §4, §5, §6, §7, §8

[7] = target: T7, CDK4/cyclin D3 (Homo sapiens, UniProt P11802); experiment: CDK family off-target kinase activity (Eurofins); type: biochemical
T7 construct: purchased Eurofins Pharma Discovery Services UK Ltd
T7 sequence (P11802 whole entry): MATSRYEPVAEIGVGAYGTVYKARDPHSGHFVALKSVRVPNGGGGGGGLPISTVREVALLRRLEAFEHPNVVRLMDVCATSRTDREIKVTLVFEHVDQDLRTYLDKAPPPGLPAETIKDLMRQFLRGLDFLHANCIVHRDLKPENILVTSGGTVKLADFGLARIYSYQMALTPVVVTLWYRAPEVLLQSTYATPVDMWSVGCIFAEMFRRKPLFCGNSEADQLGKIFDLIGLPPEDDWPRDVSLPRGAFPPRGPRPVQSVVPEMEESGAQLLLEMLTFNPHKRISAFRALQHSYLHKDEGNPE
T7 sequence (P30281 whole entry partner): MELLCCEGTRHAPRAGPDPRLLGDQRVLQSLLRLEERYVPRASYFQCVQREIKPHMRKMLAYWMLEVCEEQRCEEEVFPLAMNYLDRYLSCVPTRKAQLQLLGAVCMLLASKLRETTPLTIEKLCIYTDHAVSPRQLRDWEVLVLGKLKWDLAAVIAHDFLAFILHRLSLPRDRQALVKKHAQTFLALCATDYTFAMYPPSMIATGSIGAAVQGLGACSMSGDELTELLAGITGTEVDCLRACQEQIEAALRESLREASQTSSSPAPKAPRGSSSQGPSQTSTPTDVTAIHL
Protocol: as §1, §2, §3, §4, §5, §6, §7, §8

[8] = target: T8, CDK2/cyclin E (Homo sapiens, UniProt P24941); experiment: CDK family off-target kinase activity (Eurofins); type: biochemical
T8 construct: purchased Eurofins Pharma Discovery Services UK Ltd
Protocol: as §1, §2, §3, §4, §5, §6, §7, §8

[9] = target: T9, CDK5/p25 (Homo sapiens, UniProt Q00535); experiment: CDK family off-target kinase activity (Eurofins); type: biochemical
T9 construct: purchased Eurofins Pharma Discovery Services UK Ltd
T9 sequence (Q00535 whole entry): as the sequence (Q00535 whole entry) above
T9 sequence (Q15078 99-307 partner limits assumed): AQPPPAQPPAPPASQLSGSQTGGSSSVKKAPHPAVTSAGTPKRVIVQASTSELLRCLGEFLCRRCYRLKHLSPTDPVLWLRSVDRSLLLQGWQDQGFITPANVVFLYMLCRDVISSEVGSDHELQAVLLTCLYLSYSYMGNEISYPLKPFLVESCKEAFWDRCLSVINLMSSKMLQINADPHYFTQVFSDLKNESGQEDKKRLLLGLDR
Protocol: as §1, §2, §3, §4, §5, §6, §7, §8

[10] = target: T10, CDK17/cyclin Y (Homo sapiens, UniProt Q00537); experiment: CDK family off-target kinase activity (Eurofins); type: biochemical
T10 construct: purchased Eurofins Pharma Discovery Services UK Ltd
T10 sequence (Q00537 whole entry): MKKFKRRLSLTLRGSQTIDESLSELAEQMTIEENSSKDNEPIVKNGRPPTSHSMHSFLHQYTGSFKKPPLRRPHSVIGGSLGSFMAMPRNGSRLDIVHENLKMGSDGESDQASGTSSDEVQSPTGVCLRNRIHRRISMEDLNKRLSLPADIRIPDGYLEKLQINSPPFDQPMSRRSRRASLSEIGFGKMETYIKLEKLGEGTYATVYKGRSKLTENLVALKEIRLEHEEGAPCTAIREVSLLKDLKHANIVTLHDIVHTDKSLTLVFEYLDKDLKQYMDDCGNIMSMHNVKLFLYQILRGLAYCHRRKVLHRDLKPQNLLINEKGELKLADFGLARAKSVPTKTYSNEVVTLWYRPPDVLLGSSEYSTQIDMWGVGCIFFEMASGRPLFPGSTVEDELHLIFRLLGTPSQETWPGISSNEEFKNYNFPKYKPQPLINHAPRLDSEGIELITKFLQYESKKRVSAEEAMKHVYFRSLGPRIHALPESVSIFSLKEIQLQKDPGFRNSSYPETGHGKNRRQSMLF
T10 sequence (Q8ND76 whole entry partner): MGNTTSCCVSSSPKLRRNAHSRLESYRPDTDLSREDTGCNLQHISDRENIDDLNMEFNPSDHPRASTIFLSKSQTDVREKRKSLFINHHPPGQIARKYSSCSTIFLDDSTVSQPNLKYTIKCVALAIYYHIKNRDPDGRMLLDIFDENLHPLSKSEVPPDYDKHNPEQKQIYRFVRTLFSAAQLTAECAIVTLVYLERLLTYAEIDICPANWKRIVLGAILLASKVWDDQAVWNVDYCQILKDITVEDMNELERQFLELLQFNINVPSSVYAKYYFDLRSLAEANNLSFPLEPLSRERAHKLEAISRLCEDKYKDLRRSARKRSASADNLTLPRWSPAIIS
Protocol: as §1, §2, §3, §4, §5, §6, §7, §8

[11] = target: T11, CDK6/cyclin D3 (Homo sapiens, UniProt Q00534); experiment: CDK family off-target kinase activity (Eurofins); type: biochemical
T11 construct: purchased Eurofins Pharma Discovery Services UK Ltd
T11 sequence (Q00534 whole entry): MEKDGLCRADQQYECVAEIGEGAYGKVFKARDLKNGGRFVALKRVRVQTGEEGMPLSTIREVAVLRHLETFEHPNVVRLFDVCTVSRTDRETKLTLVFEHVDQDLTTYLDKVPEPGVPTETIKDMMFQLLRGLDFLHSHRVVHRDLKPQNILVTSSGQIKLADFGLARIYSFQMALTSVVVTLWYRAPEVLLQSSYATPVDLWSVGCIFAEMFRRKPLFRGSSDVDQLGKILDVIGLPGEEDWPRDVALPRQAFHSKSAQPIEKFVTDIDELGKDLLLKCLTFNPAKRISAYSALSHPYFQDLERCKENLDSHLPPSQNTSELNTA
T11 sequence (P30281 whole entry partner): as the sequence (P30281 whole entry partner) above
Protocol: as §1, §2, §3, §4, §5, §6, §7, §8

[12] = target: T12, CDK16/cyclin Y (Homo sapiens, UniProt Q00536); experiment: CDK family off-target kinase activity (Eurofins); type: biochemical
T12 construct: purchased Eurofins Pharma Discovery Services UK Ltd
T12 sequence (Q00536 whole entry): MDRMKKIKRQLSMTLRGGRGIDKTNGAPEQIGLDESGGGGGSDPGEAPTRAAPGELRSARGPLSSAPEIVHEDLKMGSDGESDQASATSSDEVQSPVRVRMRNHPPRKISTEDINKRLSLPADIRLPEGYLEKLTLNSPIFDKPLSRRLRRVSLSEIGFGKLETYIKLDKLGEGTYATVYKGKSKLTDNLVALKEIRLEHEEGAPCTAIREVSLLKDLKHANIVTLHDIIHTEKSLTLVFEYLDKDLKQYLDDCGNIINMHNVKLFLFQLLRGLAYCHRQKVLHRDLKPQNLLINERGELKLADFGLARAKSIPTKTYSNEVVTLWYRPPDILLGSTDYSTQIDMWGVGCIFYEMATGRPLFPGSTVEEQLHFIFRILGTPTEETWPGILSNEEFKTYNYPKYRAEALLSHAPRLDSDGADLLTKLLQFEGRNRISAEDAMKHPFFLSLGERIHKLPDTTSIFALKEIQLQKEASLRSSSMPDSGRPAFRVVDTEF
T12 sequence (Q8ND76 whole entry partner): as the sequence (Q8ND76 whole entry partner) above
Protocol: as §1, §2, §3, §4, §5, §6, §7, §8

[13] = target: T13, CDK3/cyclin E (Homo sapiens, UniProt Q00526); experiment: CDK family off-target kinase activity (Eurofins); type: biochemical
T13 construct: purchased Eurofins Pharma Discovery Services UK Ltd
Protocol: as §1, §2, §3, §4, §5, §6, §7, §8

[14] = target: T14, D1 (dopamine) (Homo sapiens, UniProt P21728); experiment: GPCR agonist action testing; type: cell-based
T14 construct: Wuxi AppTech (contract laboratory)
Text: (§9) Supplementary Table 2: Results of GPCR agonist action testing of GFH009 administered at a
(§10) Agonist action against GPCR type shown below
(§11) Target % Agonist Effect @ Max Dose
(§12) M1 (muscarinic Ach) −2.18
(§13) M2 (muscarinic Ach) −0.63

[15] = target: T15, H1 (histamine) (Homo sapiens, UniProt P35367); experiment: GPCR agonist action testing; type: cell-based
T15 construct: Wuxi AppTech (contract laboratory)
Text: as §9, §10, §11, §12, §13

[16] = target: M2 (muscarinic Ach) (Homo sapiens, UniProt P08172); experiment: GPCR agonist action testing; type: cell-based
Text: as §9, §10, §11, §12, §13

[17] = target: op-m (opioid) (Homo sapiens, UniProt P35372); experiment: GPCR agonist action testing; type: cell-based
Text: as §9, §10, §11, §12, §13

[18] = target: T16, CB1 (cannabinoid) (Homo sapiens, UniProt P21554); experiment: GPCR agonist action testing; type: cell-based
T16 construct: Wuxi AppTech (contract laboratory)
Text: as §9, §10, §11, §12, §13

[19] = target: T17, CB2 (cannabinoid) (Homo sapiens, UniProt P34972); experiment: GPCR agonist action testing; type: cell-based
T17 construct: Wuxi AppTech (contract laboratory)
Text: as §9, §10, §11, §12, §13

[20] = target: T18, 5-HT1A (serotonin) (Homo sapiens, UniProt P08908); experiment: GPCR agonist action testing; type: cell-based
T18 construct: Wuxi AppTech (Shanghai, China)
Text: as §9, §10, §11, §12, §13

[21] = target: T19, a1a (adrenoceptor) (Homo sapiens, UniProt P35348); experiment: GPCR agonist action testing; type: cell-based
T19 construct: Wuxi AppTech (contract laboratory)
Text: as §9, §10, §11, §12, §13

[22] = target: M1 (muscarinic Ach) (Homo sapiens, UniProt P11229); experiment: GPCR agonist action testing; type: cell-based
Text: as §9, §10, §11, §12, §13

[23] = target: T20, b2 (adrenoceptor) (Homo sapiens, UniProt P07550); experiment: GPCR agonist action testing; type: cell-based
T20 construct: Wuxi AppTech (contract laboratory)
Text: as §9, §10, §11, §12, §13

[24] = tested on: AD2 (adenosine); experiment: GPCR agonist action testing; type: cell-based
Text: as §9, §10, §11, §12, §13

[25] = target: op-d (opioid) (Homo sapiens, UniProt P41143); experiment: GPCR agonist action testing; type: cell-based
Text: as §9, §10, §11, §12, §13

[26] = target: T21, 5-HT1B (serotonin) (Homo sapiens, UniProt P28222); experiment: GPCR agonist action testing; type: cell-based
T21 construct: Wuxi AppTech (Shanghai, China)
Text: as §9, §10, §11, §12, §13

[27] = target: T22, 5-HT2B (serotonin) (Homo sapiens, UniProt P41595); experiment: GPCR agonist action testing; type: cell-based
T22 construct: Wuxi AppTech (Shanghai, China)
Text: as §9, §10, §11, §12, §13

[28] = target: T23, 5-HT2A (serotonin) (Homo sapiens, UniProt P28223); experiment: GPCR agonist action testing; type: cell-based
T23 construct: Wuxi AppTech (Shanghai, China)
Text: as §9, §10, §11, §12, §13

[29] = target: T24, a2a (adrenoceptor) (Homo sapiens, UniProt P08913); experiment: GPCR agonist action testing; type: cell-based
T24 construct: Wuxi AppTech (contract laboratory)
Text: as §9, §10, §11, §12, §13

[30] = target: op-k (opioid) (Homo sapiens, UniProt P41145); experiment: GPCR agonist action testing; type: cell-based
Text: as §9, §10, §11, §12, §13

COC[C@@H](C)NC1CCC(Nc2cc(-c3csc(NCC4(C#N)CCOCC4)n3)c(Cl)cn2)CC1 (some centres unmarked) [GFH009]
Selectivity vs. CDK9 [1]: > 100 | Remaining enzymatic activity (%) after exposure to GFH009 ([1]; 1 µM): 70% | Remaining enzymatic activity (%) after exposure to GFH009 ([1]; 10 µM): 39% | Selectivity vs. CDK9 [2]: > 1000 | Remaining enzymatic activity (%) after exposure to GFH009 ([2]; 1 µM): 80% | Remaining enzymatic activity (%) after exposure to GFH009 ([2]; 10 µM): 51% | Selectivity vs. CDK9 [3]: > 100 | Remaining enzymatic activity (%) after exposure to GFH009 ([3]; 1 µM): 66% | Remaining enzymatic activity (%) after exposure to GFH009 ([3]; 10 µM): 43% | Selectivity vs. CDK9 [4]: > 100 | Remaining enzymatic activity (%) after exposure to GFH009 ([4]; 1 µM): 67% | Remaining enzymatic activity (%) after exposure to GFH009 ([4]; 10 µM): 19% | Selectivity vs. CDK9 [5]: > 100 | Remaining enzymatic activity (%) after exposure to GFH009 ([5]; 1 µM): 75% | Remaining enzymatic activity (%) after exposure to GFH009 ([5]; 10 µM): 47% | Selectivity vs. CDK9 [6]: > 1000 | Remaining enzymatic activity (%) after exposure to GFH009 ([6]; 1 µM): 97% | Remaining enzymatic activity (%) after exposure to GFH009 ([6]; 10 µM): 50% | Selectivity vs. CDK9 [7]: > 100 | Remaining enzymatic activity (%) after exposure to GFH009 ([7]; 1 µM): 70% | Remaining enzymatic activity (%) after exposure to GFH009 ([7]; 10 µM): 41% | Selectivity vs. CDK9 [8]: > 100 | Remaining enzymatic activity (%) after exposure to GFH009 ([8]; 1 µM): 63% | Remaining enzymatic activity (%) after exposure to GFH009 ([8]; 10 µM): 27% | Selectivity vs. CDK9 [9]: > 100 | Remaining enzymatic activity (%) after exposure to GFH009 ([9]; 1 µM): 79% | Remaining enzymatic activity (%) after exposure to GFH009 ([9]; 10 µM): 43% | Selectivity vs. CDK9 [10]: < 100 | Remaining enzymatic activity (%) after exposure to GFH009 ([10]; 1 µM): 30% | Remaining enzymatic activity (%) after exposure to GFH009 ([10]; 10 µM): 7% | Selectivity vs. CDK9 [11]: > 1000 | Remaining enzymatic activity (%) after exposure to GFH009 ([11]; 1 µM): 85% | Remaining enzymatic activity (%) after exposure to GFH009 ([11]; 10 µM): 58% | Selectivity vs. CDK9 [12]: < 100 | Remaining enzymatic activity (%) after exposure to GFH009 ([12]; 1 µM): 23% | Remaining enzymatic activity (%) after exposure to GFH009 ([12]; 10 µM): 5% | Selectivity vs. CDK9 [13]: > 100 | Remaining enzymatic activity (%) after exposure to GFH009 ([13]; 1 µM): 74% | Remaining enzymatic activity (%) after exposure to GFH009 ([13]; 10 µM): 39% | % Agonist Effect @ Max Dose (12 µM) [14]: −1.49% | % Agonist Effect @ Max Dose (12 µM) [15]: 1.55% | % Agonist Effect @ Max Dose (12 µM) [16]: −0.63% | % Agonist Effect @ Max Dose (12 µM) [17]: 0.71% | % Agonist Effect @ Max Dose (12 µM) [18]: −0.7% | % Agonist Effect @ Max Dose (12 µM) [19]: 0.23% | % Agonist Effect @ Max Dose (12 µM) [20]: −0.33% | % Agonist Effect @ Max Dose (12 µM) [21]: 4.58% | % Agonist Effect @ Max Dose (12 µM) [22]: −2.18% | % Agonist Effect @ Max Dose (12 µM) [23]: −0.6% | % Agonist Effect @ Max Dose (12 µM) [24]: 21.7% | % Agonist Effect @ Max Dose (12 µM) [25]: −0.98% | % Agonist Effect @ Max Dose (12 µM) [26]: −51.01% | % Agonist Effect @ Max Dose (12 µM) [27]: 4.55% | % Agonist Effect @ Max Dose (12 µM) [28]: −1.68% | % Agonist Effect @ Max Dose (12 µM) [29]: −3.87% | % Agonist Effect @ Max Dose (12 µM) [30]: 21.57%
